Measured values as given in ChEMBL document CHEMBL3243922, “Synthesis, redox characteristics, and in vitro norepinephrine uptake inhibiting properties of 2-(2-mercapto-4,5-dihydroxyphenyl)ethylamine (6-mercaptodopamine)” (J Med Chem, 1979).

Tests used:
Settings in all cases: in vivo
[1] = tested on: Rattus norvegicus; experiment: Pressor activity in iv dosed normotensive Sprague-Dawley rat assessed as dose required for increasing systolic blood pressure […] 30 mm Hg; assay type: organism-based, Artery
[2] = tested on: Rattus norvegicus; experiment: Neurotoxicity in Sprague-Dawley rat heart atria assessed as inhibition of [3H]norepinephrine uptake at 20 to 160 mg/kg, iv after 24 hrs by scintillation counting analysis; assay type: toxicity, organism-based; parameters: dose 20-160 mg/kg, route intravenous
[3] = tested on: Rattus norvegicus; experiment: Central neurotoxicity in iv dosed Sprague-Dawley rat brain hypothalamus assessed as inhibition of [3H]norepinephrine uptake after 24 hrs by scintillation counting analysis; assay type: organism-based
[4] = tested on: Rattus norvegicus; experiment: Neurotoxicity in Sprague-Dawley rat heart atria assessed as inhibition of [3H]norepinephrine uptake at 10 mg/kg, iv after 24 hrs by scintillation counting analysis; assay type: toxicity, organism-based; parameters: dose 10 mg/kg, route intravenous

Compound | Activity [1] | Activity [2] | Activity [3] | Activity [4]
CC(N)Cc1cc(O)c(O)cc1O (stereo not drawn) | 6 ×10⁻⁵ g |  |  | 
C[C@H](N)Cc1ccc(O)c(O)c1 | 3.1 µg |  |  | 
Cl.NCCc1cc(O)c(O)cc1S | 1.3 ×10⁻⁴ g | Toxic | Non-toxic | 
NCCc1ccc(O)c(O)c1 [DOPAMINE] | 2.9 µg |  |  | 
NCCc1cc(O)c(O)cc1O [OXIDOPAMINE] | 1.6 ×10⁻⁵ g |  |  | Toxic
